One series concerns ovarian cancer. The conditions noted are these: mouse models of ovarian cancer; cited from earlier work.
The conditions of series [1]: human, in vivo; cited from earlier work.
For series [2] the following is noted: cited from earlier work.
For series [3] the following is noted: cited from earlier work. The source holds these as a separate data set.
Another series relates to COV362 cells. As to the kind of experiment: Transmigration assay of COV362 cells towards MK cultures (modified Boyden chamber). The series is classed as cell-based, human. The method, then: Transmigration assay—Transmigration of human ovarian cancer cells, COV362 cells (COVs), was examined in a well established model of cancer cell migration (Hart et al 2005) and Kramer et al 2013) which employed the modified Boyden chamber described above but using inserts with a larger 8μm pore PET membrane. […] In this case pre-expanded haematopoietic cells were grown for 7 days in MK medium in the wells of the companion plate prior to placement of the inserts. Inserts were then positioned inside these MK-containing wells or in parallel wells filled with and equivalent volume of MK medium alone. A suspension of 0.35 mL COVs cells made in plasma-free MK medium at a density of 2.86×10^5cells/ml was then loaded onto the inserts and allowed to trans-migrate through the PET membrane for up to 24 h at 37° C. in a tissue culture incubator. At various time points the transmigration assay was terminated by removing the insert from the well of the companion plate and aspirating its contents. After washing the inserts with phosphate-buffered saline (PBS) non-migrating cells attached to the upper side of the PET membrane were scraped off with cotton swabs soaked in PBS. […] Bright field digital photomicrographs were taken in five random fields at 100× magnification and the average number of cells per field was determined by manual counting.

For series [4] the following is noted: cited from earlier work. This is another data set of the same source.
A further series concerns PDE III. Particulars: cited from earlier work; for IC50 inhibition of PDE III / IC50: in vitro; for IC50: read-out: IC50 inhibition of PDE III.
A further series has as its system cancer cells. The conditions noted are these: mice; cited from earlier work.
The next series relates to VEGF. The conditions noted are these: ET patients; HU 1.25 g/day, IFN-α 1.5×10^6 units/day, anagrelide 1.5 mg/day; cited from earlier work.
A further series has as its system PF4. The conditions noted are these: ET patients; HU 1.25 g/day, IFN-α 1.5×10^6 units/day, anagrelide 1.5 mg/day; cited from earlier work.
The conditions of series [5]: cited from earlier work. This is another data set of the same source.
For another series, the system named is megakaryocytes. Particulars: cited from earlier work.
Series [6] has as its system various cancer cell lines. Particulars: in vitro; WO2014/183673; read-out: IC50 apoptosis in cancer cell lines; cited from earlier work.
The conditions of series [7]: up to concentration of 1 μM; cited from earlier work.
The conditions of series [8]: cited from earlier work; for peak plasma levels: after a typical 1 mg clinical dose.
Series [9] relates to megakaryocytes (MKs) from human umbilical cord blood-derived CD34+ haematopoietic cells. Nature of the series: Co-culture of COV362 cells and developing megakaryocytes (MK expansion, CD61 flow cytometry). The series is classed as cell-based. Particulars: anagrelide 1 μM. The method, then:
Cells and drug treatment—Megakaryocytes (MKs) were generated ex-vivo essentially as previously described (Ahluwalia M et al 2010). In brief, to promote terminal megakaryocytic differentiation pre-expanded human umbilical cord blood-derived CD34^+ haematopoietic cells were cultured for 7 days in Stemspan™ SFEM II medium (Stem Cell Technologies) supplemented with 1% human umbilical cord blood plasma and 40 ng/ml thrombopoietin (TPO) unless otherwise indicated (MK medium). […]
The human ovarian cancer cell line COV362 was grown in Iscove's modified Dulbecco's medium (IMDM) supplemented with 2 mM glutamine and 10% foetal bovine serum (FBS). Cell cultures were maintained at 37° C. in a humidified incubator under 5% CO2/95% air.
Co-culture experiments—Co-culture of COV362 cells (COVs) and developing MKs was carried out in a modified Boyden Chamber (BD Falcon, BD Biosciences, Oxford, UK) consisting of a cup-shaped cell culture insert resting inside the well of a 24-well companion plate, with the bottom of the insert made of a permeable microporous polyethylene terephthalate (PET) membrane having a pore size of 0.4 μm.
In experiments examining the effects of COVs on MK development, COVs were seeded in the companion plate at various cells densities and grown for 4 days prior to mounting the inserts. Then, the medium in the companion plate was removed and replaced with fresh MK medium. Immediately thereafter the pre-expanded haematopoietic cells were seeded in the insert. After seven days of co-culture the cells growing in the inserts were harvested for analysis of MK development.
Analysis of megakaryocyte development—Cell density was determined using a Casy TT Cell counter (Innovatis, Germany) set with a lower cut-off limit of ˜7.5 μm. MK-specific antigen expression was monitored by flow cytometry using a fluorescein isothiocyanate-conjugated anti-CD61 antibody (clone Y2/51, Dako, Ely, UK) as previously described (Wang G et al 2005). The number of MKs was calculated by multiplying the total number of cells in the culture by the fraction of CD61 positive cells.
(Flow cytometry measures light scatter and fluorescence of single cells or particles in a stream.)

Series [10] can be described thus: Aqueous solubility of anagrelide. Format: physicochemical.

Values after ≈ are worked out from the molar mass of the structure shown. Values joined by “and” are separate entries in the source; they are usually repeats but may differ in a detail not shown here. Identical values can stand only once. Like-named read-outs stand apart in the source and are kept apart here.

Consider 5 molecules from patent publication US11324746B2, “Use of anagrelide for treating cancer” (Arovella Therapeutics Limited, priority 2014, dated 2022).

As usually defined, the aqueous solubility is how much of the substance goes into solution per volume. The term IC50 denotes the point on the concentration scale where inhibition reaches its midpoint. In general, inhibition refers to how much of the control response was suppressed.

On to siltuximab: IL-6 antibody, for which, in the series on ovarian cancer, the platelet count result was “significantly reduced” and the tumour growth result is “significantly reduced”. Further, in [1], the “upper respiratory infections, share of patients” value was > 20%.
In the case of `Cc1ncc2n1-c1ccc(Cl)cc1C(c1ccccc1F)=NC2` [midazolam], the bioavailablity in series [2] (given orally) is recorded as ~30%; in [2] (intranasal spray) it was 87%.
Take `O=C1CN2Cc3c(ccc(Cl)c3Cl)N=C2N1` [anagrelide]: the values for the aqueous solubility in [3] (between pH 4-8) and in series [3] (pH1) were ~1.0 µg/mL (≈ 3.9 µM) and 236 µg/mL (≈ 922 µM), respectively. Further, the figures for the water solubility in series [3] (pH7) and in series [3] (pH of ~3) were ~1.0 µg/mL (≈ 3.9 µM) and 250 µg/mL (≈ 976 µM), respectively. Moreover, in the series on COV362 cells (anagrelide 1 μM, overnight incubation (FIG. 3)), the “attractant properties for COVs of MK cultures grown with drug” value is recorded as “no attractant properties”. Besides, in the series with COV362 cells (clinically relevant concentrations, 16 h (FIG. 4)), the “attractant properties for COVs of MKs grown with drug” value is reported as “loss of attractant properties”. For the same molecule, the oral bioavailability result in [4] was “less than 50%”. Also, the “IC50 inhibition of PDE III” value in the series on PDE III is on record as 8.2 ng/mL. Besides, the IC50 with PDE III was 32 nM; in the series with megakaryocytes (read-out: in vitro anti-megakaryocytic IC50) it was 26 nM; in [6], 100 nM. Further, the “circulation time of cancer cells” value in the series with cancer cells is given as “increase in circulation time of cancer cells”. In the series with VEGF, the “VEGF levels after treatment” value is “reduced the PF4 and VEGF levels to normal”. Besides, the “PF4 levels after treatment” value in the series on PF4 is “reduced the PF4 and VEGF levels to normal”. In series [5] (Birgegard et al, 2004), the “patients discontinuing drug treatment due to cardiovascular side-effects” value is ~25%. For the same molecule, the “patients with idiopathic cardiomyopathy” value in [5] (of 434 patients with essential thrombocythaemia and polycythemia vera, Jurgens et al 2004) is recorded as 11. The “in vitro anti-megakaryocytic IC50” value in the series with megakaryocytes is on record as 7 ng/mL. For the same molecule, in [7], the apoptopic effects result is on record as “no apoptopic effects”. Moreover, the peak plasma levels in series [8] was 16 nM and ~4 ng/mL. For the same molecule, the inhibition at 1 µM in [9] (Homo sapiens, 168 h, absence of COVs, 7 days, read-out: inhibition of thrombopoietin driven MK expansion) was ~50%. The “stimulatory effects of COVs on MK expansion” value in series [9] (COVs seeded at 1000cells/mL) is listed as “completely abolished”. Further, the “expected increase in MK expansion with COVs” value in [9] (COVs seeded at 3000cells/mL) was “more than halved”. Besides, the “FDA Biopharmaceutics Classification System class” value in series [10] is given as “low solubility/high permeability”.
`NC(=O)NO` [HU, hydroxyurea]: the “VEGF levels after treatment” value in the series on VEGF was “Neither HU nor IFα brought PF4 and VEGF down”. Further, in the series on PF4, the “PF4 levels after treatment” value was “Neither HU nor IFα brought PF4 and VEGF down”.
As to `O=C1NC2=Nc3ccc(Cl)c(Cl)c3CN2C1O` (stereo not drawn) [3-hydroxy anagrelide], the “PDEIII inhibitory potency relative to anagrelide” value in the series with PDE III (Wang et al, 2005) is recorded as ~40 fold. Also, in the series with PDE III, the “cardiostimulant potency relative to the parent drug” value was 40 fold, the “IC50 inhibition of PDE III” value is 0.2 ng/mL and the IC50 was 0.7 nM. In addition, the peak plasma levels in series [8] (listed as metabolite) was 29 nM and ~8 ng/mL. Besides, the “plasma concentrations of metabolite relative to parent drug” value in series [8] (clinical practice, Martinez-Selles et al, 2013) is reported as 2-3 fold.
